# Source: patent US20240376100A1 (Redona Therapeutics, Inc., priority 2021, published 2024)
# Counter-ions that a name gives are not always drawn.
# Target: PAPD5 enzyme (Homo sapiens, UniProt Q8NDF8)
# Experiment: PAPD5 assay (AMP incorporation onto 3'-terminus of RNA substrate, fluorescence quench)
# Type: biochemical
# Details: PAPD5 protein 0.3 nM, ATP 50 μM, 30 minutes preincubation, room temperature; read-out: Potency PAPD5 IC50
# Outline: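 Enzyme at 0.3 nM with 50 μM ATP, pH 7.3 HEPES buffer, preincubated with compound 30 minutes at room temperature; 5 nM 5′-fluorescein RNA substrate and 20 nM TAMRA quench probe then added. Initial rates from kinetic fluorescein decrease over ~90 minutes; IC50 by four-parameter fit.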
# Chain of PAPD5 enzyme (Q8NDF8 whole entry): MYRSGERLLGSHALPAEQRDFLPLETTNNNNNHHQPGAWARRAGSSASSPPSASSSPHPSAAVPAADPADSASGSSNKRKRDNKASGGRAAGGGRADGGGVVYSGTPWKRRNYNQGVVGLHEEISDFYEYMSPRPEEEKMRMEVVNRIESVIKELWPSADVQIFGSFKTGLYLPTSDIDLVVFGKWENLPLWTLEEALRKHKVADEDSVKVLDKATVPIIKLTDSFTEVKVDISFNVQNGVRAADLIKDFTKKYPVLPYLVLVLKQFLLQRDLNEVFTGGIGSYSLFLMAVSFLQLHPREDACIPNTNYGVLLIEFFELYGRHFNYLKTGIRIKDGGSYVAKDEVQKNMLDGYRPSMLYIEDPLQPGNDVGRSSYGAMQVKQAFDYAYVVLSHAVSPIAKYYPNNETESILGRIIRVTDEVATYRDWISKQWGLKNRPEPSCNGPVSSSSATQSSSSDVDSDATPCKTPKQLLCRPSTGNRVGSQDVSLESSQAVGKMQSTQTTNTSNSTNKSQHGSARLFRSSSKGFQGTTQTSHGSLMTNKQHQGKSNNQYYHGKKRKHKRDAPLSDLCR
row,Compound,IC50 [nM]
1,"Cn1cnc(Cn2cc(C(=O)O)c(=O)c3cc(Cl)c(N4Cc5cccnc5C4)cc32)c1 [Example 131, 6-chloro-7-(5,7-dihydro-6H-pyrrolo[3,4-b]pyridin-6-yl)-1-((1-methyl-1H-imidazol-4-yl)methyl)-4-oxo-1,4-dihydroquinoline-3-carboxylic acid]",≤ 1000
2,"COCCCN(C)c1cc2c(cc1Cl)c(=O)c(C(=O)O)cn2-c1cnc(N)cc1C [Example 133, 1-(6-amino-4-methylpyridin-3-yl)-6-chloro-7-((3-methoxypropyl)(methyl)amino)-4-oxo-1,4-dihydroquinoline-3-carboxylic acid]",≤ 1000
3,"COc1cc2c(=O)c(C(=O)O)cn(-c3cnc(NC(=O)OC(C)(C)C)cc3C)c2cc1N1Cc2cccnc2C1 [Example 135, 1-(6-((tert-butoxycarbonyl)amino)-4-methylpyridin-3-yl)-7-(5,7-dihydro-6H-pyrrolo[3,4-b]pyridin-6-yl)-6-methoxy-4-oxo-1,4-dihydroquinoline-3-carboxylic acid]",≤ 1000
4,"Cc1cc(NC(=O)OC(C)(C)C)ncc1-n1cc(C(=O)O)c(=O)c2ccc(N3Cc4cccnc4C3)cc21 [Example 136, 1-(6-((tert-butoxycarbonyl)amino)-4-methylpyridin-3-yl)-7-(5,7-dihydro-6H-pyrrolo[3,4-b]pyridin-6-yl)-4-oxo-1,4-dihydroquinoline-3-carboxylic acid]",≤ 1000
5,Cc1cc2c(=O)c(C(=O)O)cn(-c3cnc(N)cc3C)c2cc1N1Cc2cccnc2C1 [Example 141],≤ 1000
6,"Cc1cc2c(=O)c(C(=O)O)cn(-c3cnc(NC(=O)OC(C)(C)C)cc3C)c2cc1N1Cc2cccnc2C1 [Example 142, 1-(6-((tert-butoxycarbonyl)amino)-4-methylpyridin-3-yl)-7-(5,7-dihydro-6H-pyrrolo[3,4-b]pyridin-6-yl)-6-methyl-4-oxo-1,4-dihydroquinoline-3-carboxylic acid]",≤ 1000
7,"CCOc1cc2c(=O)c(C(=O)O)cn(-c3cnc(N)cc3C)c2cc1N1Cc2cccnc2C1 [Example 144, 1-(6-amino-4-methylpyridin-3-yl)-7-(5,7-dihydro-6H-pyrrolo[3,4-b]pyridin-6-yl)-6-ethoxy-4-oxo-1,4-dihydroquinoline-3-carboxylic acid]",≤ 1000
8,"CCOc1cc2c(=O)c(C(=O)O)cn(-c3cnc(NC(=O)OC(C)(C)C)cc3C)c2cc1N1Cc2cccnc2C1 [Example 149, 1-(6-((tert-butoxycarbonyl)amino)-4-methylpyridin-3-yl)-7-(5,7-dihydro-6H-pyrrolo[3,4-b]pyridin-6-yl)-6-ethoxy-4-oxo-1,4-dihydroquinoline-3-carboxylic acid]",≤ 1000
9,"Cc1cc(NC(=O)OC(C)(C)C)ncc1-n1cc(C(=O)O)c(=O)c2cnc(N3Cc4cccnc4C3)cc21 [Example 150, 1-(6-((tert-butoxycarbonyl)amino)-4-methylpyridin-3-yl)-7-(5,7-dihydro-6H-pyrrolo[3,4-b]pyridin-6-yl)-4-oxo-1,4-dihydro-1,6-naphthyridine-3-carboxylic acid]",≤ 1000
10,"COCCNc1cc(C)c(-n2cc(C(=O)O)c(=O)c3cc(Cl)c(N4Cc5cccnc5C4)nc32)cn1 [Example 151, 6-chloro-7-(5,7-dihydro-6H-pyrrolo[3,4-b]pyridin-6-yl)-1-(6-((2-methoxyethyl)amino)-4-methylpyridin-3-yl)-4-oxo-1,4-dihydro-1,8-naphthyridine-3-carboxylic acid]",≤ 1000
11,"Cc1cc(NC(=O)OC(C)(C)C)ncc1-n1cc(C(=O)O)c(=O)c2ccc(N3Cc4cccnc4C3)c(F)c21 [Example 156, 1-(6-((tert-butoxycarbonyl)amino)-4-methylpyridin-3-yl)-7-(5,7-dihydro-6H-pyrrolo[3,4-b]pyridin-6-yl)-8-fluoro-4-oxo-1,4-dihydroquinoline-3-carboxylic acid]",≤ 1000
12,"Cc1cc(N)ncc1-n1cc(C(=O)O)c(=O)c2cc(Cl)c(N3Cc4cccc(F)c4C3)nc21 [Example 158, 1-(6-amino-4-methylpyridin-3-yl)-6-chloro-7-(4-fluoroisoindolin-2-yl)-4-oxo-1,4-dihydro-1,8-naphthyridine-3-carboxylic acid]",≤ 1000

# The next lines start with the values.
row,IC50 [nM],Compound
1,≤ 1000,"CN(C)C(=O)N1CCC(n2cc(C(=O)O)c(=O)c3cc(Cl)c(N4Cc5cccnc5C4)cc32)CC1 [Example 130, 6-chloro-7-(5,7-dihydro-6H-pyrrolo[3,4-b]pyridin-6-yl)-1-(1-(dimethylcarbamoyl)piperidin-4-yl)-4-oxo-1,4-dihydroquinoline-3-carboxylic acid]"
2,≤ 1000,"COCCN(C)c1cc2c(cc1Cl)c(=O)c(C(=O)O)cn2-c1cnc(N)cc1C [Example 132, 1-(6-amino-4-methylpyridin-3-yl)-6-chloro-7-((2-methoxyethyl)(methyl)amino)-4-oxo-1,4-dihydroquinoline-3-carboxylic acid]"
3,≤ 1000,"CCN(CCOC)c1cc2c(cc1Cl)c(=O)c(C(=O)O)cn2-c1cnc(N)cc1C [Example 138, 1-(6-amino-4-methylpyridin-3-yl)-6-chloro-7-(ethyl(2-methoxyethyl)amino)-4-oxo-1,4-dihydroquinoline-3-carboxylic acid]"
4,≤ 1000,"COc1cc2c(=O)c(C(=O)O)cn(-c3cnc(N)cc3C)c2cc1N1Cc2cccnc2C1 [Example 139, 1-(6-amino-4-methylpyridin-3-yl)-7-(5,7-dihydro-6H-pyrrolo[3,4-b]pyridin-6-yl)-6-methoxy-4-oxo-1,4-dihydroquinoline-3-carboxylic acid]"
5,≤ 1000,"Cc1cc(N)ncc1-n1cc(C(=O)O)c(=O)c2ccc(N3Cc4cccnc4C3)cc21 [Example 140, 1-(6-amino-4-methylpyridin-3-yl)-7-(5,7-dihydro-6H-pyrrolo[3,4-b]pyridin-6-yl)-4-oxo-1,4-dihydroquinoline-3-carboxylic acid]"
6,≤ 1000,"COCCN(C)c1cc(C)c(-n2cc(C(=O)O)c(=O)c3cc(Cl)c(N4Cc5cccnc5C4)nc32)cn1 [Example 143, 6-chloro-7-(5,7-dihydro-6H-pyrrolo[3,4-b]pyridin-6-yl)-1-(6-((2-methoxyethyl)(methyl)amino)-4-methylpyridin-3-yl)-4-oxo-1,4-dihydro-1,8-naphthyridine-3-carboxylic acid]"
7,≤ 1000,"Cc1cc(N(C)C)ncc1-n1cc(C(=O)O)c(=O)c2cc(Cl)c(N3Cc4cccnc4C3)nc21 [Example 146, 6-chloro-7-(5,7-dihydro-6H-pyrrolo[3,4-b]pyridin-6-yl)-1-(6-(dimethylamino)-4-methylpyridin-3-yl)-4-oxo-1,4-dihydro-1,8-naphthyridine-3-carboxylic acid]"
8,≤ 1000,"Cc1cc(N)ncc1-n1cc(C(=O)O)c(=O)c2cc(Cl)c(-n3ccc(N)n3)nc21 [Example 147, 7-(3-amino-1H-pyrazol-1-yl)-1-(6-amino-4-methylpyridin-3-yl)-6-chloro-4-oxo-1,4-dihydro-1,8-naphthyridine-3-carboxylic acid]"
9,≤ 1000,"CNc1ccn(-c2nc3c(cc2Cl)c(=O)c(C(=O)O)cn3-c2cnc(N)cc2C)n1 [Example 148, 1-(6-amino-4-methylpyridin-3-yl)-6-chloro-7-(3-(methylamino)-1H-pyrazol-1-yl)-4-oxo-1,4-dihydro-1,8-naphthyridine-3-carboxylic acid]"
10,≤ 1000,"Cc1cc(N)ncc1-n1cc(C(=O)O)c(=O)c2cc(Cl)c(-n3ccnc3)nc21 [Example 152, 1-(6-amino-4-methylpyridin-3-yl)-6-chloro-7-(1H-imidazol-1-yl)-4-oxo-1,4-dihydro-1,8-naphthyridine-3-carboxylic acid]"
11,≤ 1000,"Cc1cc(N)ncc1-n1cc(C(=O)O)c(=O)c2cc(Cl)c(-n3cccn3)nc21 [Example 153, 1-(6-amino-4-methylpyridin-3-yl)-6-chloro-4-oxo-7-(1H-pyrazol-1-yl)-1,4-dihydro-1,8-naphthyridine-3-carboxylic acid]"
12,≤ 1000,"Cc1cc(N)ncc1-n1cc(C(=O)O)c(=O)c2ccc(N3Cc4cccnc4C3)c(F)c21 [Example 154, 1-(6-amino-4-methylpyridin-3-yl)-7-5,7-dihydro-6H-pyrrolo[3,4-b]pyridin-6-yl)-8-fluoro-4-oxo-1,4-dihydroquinoline-3-carboxylic acid hydrochloride]"
13,≤ 1000,"Cc1cc(N)ncc1-n1cc(C(=O)O)c(=O)c2ccc(N3Cc4ccccc4C3)c(F)c21 [Example 155, 1-(6-amino-4-methylpyridin-3-yl)-8-fluoro-7-(isoindolin-2-yl)-4-oxo-1,4-dihydroquinoline-3-carboxylic acid]"
14,≤ 1000,"Cc1cc(N)ncc1-n1cc(C(=O)O)c(=O)c2cc(Cl)c(N3Cc4ccccc4C3)nc21 [Example 157, 1-(6-amino-4-methylpyridin-3-yl)-6-chloro-7-(isoindolin-2-yl)-4-oxo-1,4-dihydro-1,8-naphthyridine-3-carboxylic acid]"
15,≤ 1000,"Cc1cc(N)ncc1-n1cc(C(=O)O)c(=O)c2cc(Cl)c(N3Cc4ccncc4C3)nc21 [Example 159, 1-(6-amino-4-methylpyridin-3-yl)-6-chloro-7-(1,3-dihydro-2H-pyrrolo[3,4-c]pyridin-2-yl)-4-oxo-1,4-dihydro-1,8-naphthyridine-3-carboxylic acid]"
16,≤ 1000,"Cc1cc(N)ncc1-n1cc(C(=O)O)c(=O)c2cc(Cl)c(N3Cc4ccc(F)cc4C3)nc21 [Example 160, 1-(6-amino-4-methylpyridin-3-yl)-6-chloro-7-(5-fluoroisoindolin-2-yl)-4-oxo-1,4-dihydro-1,8-naphthyridine-3-carboxylic acid]"
17,≤ 1000,"COc1ccc2c(c1)CN(c1nc3c(cc1Cl)c(=O)c(C(=O)O)cn3-c1cnc(N)cc1C)C2 [Example 161, 1-(6-amino-4-methylpyridin-3-yl)-6-chloro-7-(5-methoxyisoindolin-2-yl)-4-oxo-1,4-dihydro-1,8-naphthyridine-3-carboxylic acid]"
